Reference: patent US20260116868A1 (Arcus Biosciences, Inc., priority 2023, published 2026)

Target: T1, Cbl-b (Homo sapiens, UniProt Q13191)
T1 construct: biotin (biotinylated protein)
Assay: Cbl-b probe displacement HTRF binding assay
Settings: 0.4 nM Cbl-b, 150 nM BODIPY probe
Method in brief: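 Compound competes with BODIPY probe (150 nM) for biotinylated Cbl-b (0.4 nM) in HEPES/NaCl/Triton/TCEP/BSA buffer; 60 min preincubation, 15 min with probe, room temperature. Tb-streptavidin HTRF read; % displacement vs DMSO and no-protein controls, IC50 from four-parameter fit.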

T1 sequence (Q13191 whole entry, species assumed): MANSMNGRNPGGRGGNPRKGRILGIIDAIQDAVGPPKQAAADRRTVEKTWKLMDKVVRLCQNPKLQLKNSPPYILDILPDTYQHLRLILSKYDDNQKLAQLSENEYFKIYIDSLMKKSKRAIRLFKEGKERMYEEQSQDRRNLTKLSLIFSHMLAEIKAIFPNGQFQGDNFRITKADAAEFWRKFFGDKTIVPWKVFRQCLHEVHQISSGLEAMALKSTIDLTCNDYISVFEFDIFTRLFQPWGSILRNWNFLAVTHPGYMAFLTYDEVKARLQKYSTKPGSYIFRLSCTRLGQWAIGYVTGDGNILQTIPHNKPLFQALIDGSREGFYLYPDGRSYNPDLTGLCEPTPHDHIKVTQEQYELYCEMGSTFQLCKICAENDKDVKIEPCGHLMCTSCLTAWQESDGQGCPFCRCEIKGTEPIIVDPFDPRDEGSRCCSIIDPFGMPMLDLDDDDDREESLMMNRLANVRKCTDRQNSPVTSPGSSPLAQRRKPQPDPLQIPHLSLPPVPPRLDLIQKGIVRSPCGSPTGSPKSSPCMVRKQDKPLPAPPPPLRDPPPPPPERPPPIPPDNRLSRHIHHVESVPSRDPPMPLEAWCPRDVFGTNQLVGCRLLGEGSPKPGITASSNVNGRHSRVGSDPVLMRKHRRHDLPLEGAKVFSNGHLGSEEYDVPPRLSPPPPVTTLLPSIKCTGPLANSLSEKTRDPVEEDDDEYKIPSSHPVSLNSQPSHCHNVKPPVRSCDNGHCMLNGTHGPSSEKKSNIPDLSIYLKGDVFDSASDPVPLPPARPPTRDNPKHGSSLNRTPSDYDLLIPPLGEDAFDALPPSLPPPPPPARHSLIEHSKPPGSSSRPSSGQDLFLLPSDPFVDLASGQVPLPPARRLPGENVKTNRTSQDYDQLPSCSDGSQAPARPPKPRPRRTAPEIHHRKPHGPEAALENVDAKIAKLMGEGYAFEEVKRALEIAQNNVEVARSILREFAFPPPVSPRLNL

Row | SMILES | IC50
1 | CCOc1cc(-c2ccc(C#N)cc2C(=O)N2CC(F)(F)C2)cc(NC(=O)c2cc(CNCC(C)C)cn(C3CC3)c2=O)n1 [Example 202] | < 100 nM
2 | CC(C)Nc1cc(-c2c(F)cc(Cl)cc2C(=O)N2CC(F)(F)C2)cc(NC(=O)c2cc(CN[C@@H](C)C3CC3)cn(C3CC3)c2=O)n1 [Example 204] | < 100 nM
3 | CCOc1cc(-c2ccc(C#N)cc2C(=O)N2CC(F)(F)C2)cc(NC(=O)c2cc(CNC[C@H](C)OC)cn(C3CC3)c2=O)n1 [Example 206] | < 100 nM
4 | CC(C)Nc1cc(-c2c(F)cc(Cl)cc2C(=O)N2CC(F)(F)C2)cc(NC(=O)c2cc(CNC[C@@H]3CCCO3)cn(C3CC3)c2=O)n1 [Example 208] | < 100 nM
5 | CC(C)Oc1cc(-c2ccc(OC(F)F)cc2C(=O)N2CC(F)(F)C2)cc(NC(=O)c2cc(CNC[C@@H]3CCCO3)cn(C3CC3)c2=O)n1 [Example 209] | < 100 nM
6 | CCOc1cc(-c2c(F)cc(Cl)cc2C(=O)N2CC(F)(F)C2)cc(NC(=O)c2cc(CNC[C@@H]3CCCO3)cn(C3CC3)c2=O)n1 [Example 210] | < 100 nM
7 | CC(C)CNCc1cc(C(=O)Nc2cc(-c3ccc(C#N)cc3C(=O)N3CC(F)(F)C3)cc(OC(C)C)n2)c(=O)n(C)c1 [Example 211] | < 100 nM
8 | CCOc1cc(-c2c(F)cc(Cl)cc2C(=O)N2CC(F)(F)C2)cc(NC(=O)c2cc(CNCC(C)C)cn(C3CC3)c2=O)n1 [Example 213] | < 100 nM
9 | CO[C@@H](C)CNCc1cc(C(=O)Nc2cc(-c3cc(F)c(Cl)cc3C(=O)N3CC(F)(F)C3)cc(C3CC3)n2)c(=O)n(C2CC2)c1 [Example 215] | < 100 nM
10 | CO[C@@H](C)CNCc1cc(C(=O)Nc2cc(-c3ccc(Cl)cc3C(=O)N3CC(F)(F)C3)cc(NC(C)C)n2)c(=O)n(C2CC2)c1 [Example 217] | < 100 nM
11 | C[C@H](NCc1cc(C(=O)Nc2cc(-c3c(F)cc(C#N)cc3C(=O)N3CC(F)(F)C3)cc(C3CC3)n2)c(=O)n(C2CC2)c1)C1CCC1 [Example 218] | < 100 nM
12 | CC(C)Nc1cc(-c2ccc(Cl)cc2C(=O)N2CC(F)(F)C2)cc(NC(=O)c2cc(CN[C@@H](C)C3CCC3)cn(C3CC3)c2=O)n1 [Example 221] | < 100 nM
13 | CO[C@@H](C)[C@H](C)NCc1cc(C(=O)Nc2cc(-c3c(F)cc(C#N)cc3C(=O)N3CC(F)(F)C3)cc(OC(C)C)n2)c(=O)n(C2CC2)c1 [Example 222] | < 100 nM
14 | CCOc1cc(-c2ccc(Cl)cc2C(=O)N2CC(F)(F)C2)cc(NC(=O)c2cc(CNC[C@@H]3CCCO3)cn(C3CC3)c2=O)n1 [Example 225] | < 100 nM
15 | CO[C@@H](C)[C@H](C)NCc1cc(C(=O)Nc2cc(-c3c(F)cc(C#N)cc3C(=O)N3CC(F)(F)C3)cc(OC(C)C)n2)c(=O)n(C)c1 [Example 226] | < 100 nM
16 | CC(C)Oc1cc(-c2c(F)cc(C#N)cc2C(=O)N2CC(F)(F)C2)cc(NC(=O)c2cc(CN[C@@H](C)C3CCC3)cn(C)c2=O)n1 [Example 227] | < 100 nM
17 | CO[C@@H](C)CNCc1cc(C(=O)Nc2cc(-c3c(F)cc(C#N)cc3C(=O)N3CC(F)(F)C3)cc(C3CC3)n2)c(=O)n(C)c1 [Example 228] | < 100 nM
18 | CO[C@@H](C)[C@H](C)NCc1cc(C(=O)Nc2cc(-c3c(F)cc(C#N)cc3C(=O)N3CC(F)(F)C3)cc(C3CC3)n2)c(=O)n(C)c1 [Example 229] | < 100 nM

Row | SMILES | IC50
19 | CC(C)CNCc1cc(C(=O)Nc2cc(-c3c(F)cc(C#N)cc3C(=O)N3CC(F)(F)C3)cc(C3CC3)n2)c(=O)n(C2CC2)c1 [Example 230] | < 100 nM
20 | N#Cc1cc(F)c(-c2cc(NC(=O)c3cc(CNC[C@@H]4CCCO4)cn(C4CC4)c3=O)nc(C3CC3)c2)c(C(=O)N2CC(F)(F)C2)c1 [Example 231] | < 100 nM
21 | CO[C@@H](C)CNCc1cc(C(=O)Nc2cc(-c3c(F)cc(C#N)cc3C(=O)N3CC(F)(F)C3)cc(OC(C)C)n2)c(=O)n(C)c1 [Example 235] | < 100 nM
22 | COCCNCc1cc(C(=O)Nc2cc(-c3c(F)cc(C#N)cc3C(=O)N3CC(F)(F)C3)cc(C3CC3)n2)c(=O)n(C2CC2)c1 [Example 237] | < 100 nM
23 | CCOc1cc(-c2ccc(Cl)cc2C(=O)N2CC(F)(F)C2)cc(NC(=O)c2cc(CN[C@@H](C)COC)cn(C3CC3)c2=O)n1 [Example 238] | < 100 nM
24 | CCOc1cc(-c2ccc(Cl)cc2C(=O)N2CC(F)(F)C2)cc(NC(=O)c2cc(CNCC3CC3)cn(C3CC3)c2=O)n1 [Example 240] | < 100 nM
25 | Cn1cc(CNC[C@@H]2CCCO2)cc(C(=O)Nc2cc(-c3c(F)cc(C#N)cc3C(=O)N3CC(F)(F)C3)cc(C3CC3)n2)c1=O [Example 241] | < 100 nM
26 | CC(C)Oc1cc(-c2ccc(C#N)cc2C(=O)N2CC(F)(F)C2)cc(NC(=O)c2cc(CN[C@@H](C)C(C)(C)F)cn(C3CC3)c2=O)n1 [Example 242] | < 100 nM
27 | CC(C)(F)CNCc1cc(C(=O)Nc2cc(-c3ccc(C#N)cc3C(=O)N3CC(F)(F)C3)cc(C3CC3)n2)c(=O)n(C2CC2)c1 [Example 244] | < 100 nM
28 | CCNc1cc(-c2ccc(Cl)cc2C(=O)N2CC(F)C2)cc(NC(=O)c2cc(CNC[C@H](C)OC)cn(C3CC3)c2=O)n1 [Example 245] | < 100 nM
29 | CCOc1cc(-c2ccc(OC(F)F)cc2C(=O)N2CC(F)C2)cc(NC(=O)c2cc(CN[C@@H](C)C3CCC3)cn(C3CC3)c2=O)n1 [Example 247] | < 100 nM
30 | CO[C@@H](C)CNCc1cc(C(=O)Nc2cc(-c3ccc(Cl)cc3C(=O)N3CC(F)C3)cc(C3CC3)n2)c(=O)n(C2CC2)c1 [Example 248] | < 100 nM
31 | CC(C)Oc1cc(-c2ccc(OC(F)F)cc2C(=O)N2CC(F)C2)cc(NC(=O)c2cc(CN[C@@H](C)C3CCC3)cn(C)c2=O)n1 [Example 250] | < 100 nM
32 | CC(C)CNCc1cc(C(=O)Nc2cc(-c3ccc(Cl)cc3C(=O)N3CC(F)C3)cc(OC(C)C)n2)c(=O)n(C2CC2)c1 [Example 251] | < 100 nM
33 | CO[C@@H](C)CNCc1cc(C(=O)Nc2cc(-c3ccc(OC(F)F)cc3C(=O)N3CC(F)C3)cc(OC(C)C)n2)c(=O)n(C2CC2)c1 [Example 252] | < 100 nM
34 | COc1ccc(-c2cc(NC(=O)c3cc(CN[C@@H](C)C4CCC4)cn(C4CC4)c3=O)nc(OC(C)C)c2)c(C(=O)N2CC(F)C2)c1 [Example 254] | < 100 nM
35 | CC(C)Oc1cc(-c2ccc(Cl)cc2C(=O)N2CC(F)C2)cc(NC(=O)c2cc(CN[C@@H](C)C3CCC3)cn(C3CC3)c2=O)n1 [Example 256] | < 100 nM

Second part, the compound after the results:

Row | IC50 | SMILES
36 | < 100 nM | CCOc1cc(-c2c(F)cc(Cl)cc2C(=O)N2CC(F)(F)C2)cc(NC(=O)c2cc(CN[C@@H](C)[C@H](C)OC)cn(C3CC3)c2=O)n1 [Example 203]
37 | < 100 nM | CO[C@@H](C)[C@H](C)NCc1cc(C(=O)Nc2cc(-c3ccc(OC(F)F)cc3C(=O)N3CC(F)(F)C3)cc(OC(C)C)n2)c(=O)n(C2CC2)c1 [Example 205]
38 | < 100 nM | CCOc1cc(-c2c(F)cc(Cl)cc2C(=O)N2CC(F)(F)C2)cc(NC(=O)c2cc(CN[C@@H](C)C3CCC3)cn(C3CC3)c2=O)n1 [Example 207]
39 | < 100 nM | CCOc1cc(-c2ccc(C#N)cc2C(=O)N2CC(F)(F)C2)cc(NC(=O)c2cc(CNC[C@@H]3CCCO3)cn(C3CC3)c2=O)n1 [Example 212]
40 | < 100 nM | CC(C)Oc1cc(-c2ccc(C#N)cc2C(=O)N2CC(F)(F)C2)cc(NC(=O)c2cc(CN[C@@H](C)C(C)C)cn(C)c2=O)n1 [Example 214]
41 | < 100 nM | C[C@H](NCc1cc(C(=O)Nc2cc(-c3cc(F)c(Cl)cc3C(=O)N3CC(F)(F)C3)cc(C3CC3)n2)c(=O)n(C2CC2)c1)C1CCC1 [Example 216]
42 | < 100 nM | CC(C)Nc1cc(-c2ccc(Cl)cc2C(=O)N2CC(F)(F)C2)cc(NC(=O)c2cc(CN[C@@H](C)C3CC3)cn(C3CC3)c2=O)n1 [Example 219]
43 | < 100 nM | CC(C)Nc1cc(-c2ccc(Cl)cc2C(=O)N2CC(F)(F)C2)cc(NC(=O)c2cc(CNC[C@@H]3CCCO3)cn(C3CC3)c2=O)n1 [Example 223]
44 | < 100 nM | CO[C@@H](C)CNCc1cc(C(=O)Nc2cc(-c3c(F)cc(C#N)cc3C(=O)N3CC(F)(F)C3)cc(C3CC3)n2)c(=O)n(C2CC2)c1 [Example 224]
45 | < 100 nM | C[C@H](NCc1cc(C(=O)Nc2cc(-c3c(F)cc(C#N)cc3C(=O)N3CC(F)(F)C3)cc(C3CC3)n2)c(=O)n(C2CC2)c1)C1CC1 [Example 232]
46 | < 100 nM | CC(C)Oc1cc(-c2c(F)cc(C#N)cc2C(=O)N2CC(F)(F)C2)cc(NC(=O)c2cc(CN[C@@H](C)C3CC3)cn(C)c2=O)n1 [Example 233]
47 | < 100 nM | CC(C)CNCc1cc(C(=O)Nc2cc(-c3c(F)cc(C#N)cc3C(=O)N3CC(F)(F)C3)cc(OC(C)C)n2)c(=O)n(C)c1 [Example 234]
48 | < 100 nM | C[C@H](NCc1cc(C(=O)Nc2cc(-c3c(F)cc(C#N)cc3C(=O)N3CC(F)(F)C3)cc(C3CC3)n2)c(=O)n(C)c1)C1CC1 [Example 236]
49 | < 100 nM | CC(C)Oc1cc(-c2c(F)cc(C#N)cc2C(=O)N2CC(F)(F)C2)cc(NC(=O)c2cc(CNC[C@@H]3CCCO3)cn(C)c2=O)n1 [Example 239]
50 | < 100 nM | C[C@@H](CC(F)(F)F)NCc1cc(C(=O)Nc2cc(-c3ccc(C#N)cc3C(=O)N3CC(F)(F)C3)cc(C3CC3)n2)c(=O)n(C2CC2)c1 [Example 243]
51 | < 100 nM | CC(C)Oc1cc(-c2ccc(C#N)cc2C(=O)N2CC(F)C2)cc(NC(=O)c2cc(CN[C@@H](C)C3CCC3)cn(C)c2=O)n1 [Example 246]
52 | < 100 nM | CC(C)Oc1cc(-c2ccc(OC(F)F)cc2C(=O)N2CC(F)C2)cc(NC(=O)c2cc(CN[C@@H](C)C3CCC3)cn(C3CC3)c2=O)n1 [Example 249]
53 | < 100 nM | CO[C@@H](C)CNCc1cc(C(=O)Nc2cc(-c3ccc(Cl)cc3C(=O)N3CC(F)C3)cc(OC(C)C)n2)c(=O)n(C2CC2)c1 [Example 253]
54 | < 100 nM | CCOc1cc(-c2ccc(Cl)cc2C(=O)N2CC(F)C2)cc(NC(=O)c2cc(CNC[C@H](C)OC)cn(C3CC3)c2=O)n1 [Example 255]
55 | < 100 nM | CCOc1cc(-c2ccc(OC(F)F)cc2C(=O)N2CC(F)C2)cc(NC(=O)c2cc(CN[C@@H](C)C3CCC3)cn(C)c2=O)n1 [Example 257]
56 | < 100 nM | CO[C@@H](C)CNCc1cc(C(=O)Nc2cc(-c3ccc(Cl)cc3C(=O)N3CC(F)C3)cc(NC(C)C)n2)c(=O)n(C2CC2)c1 [Example 258]
